{
  "source": "paper PMC8274952",
  "about": "(European journal of medicinal chemistry, 2019)",
  "key": {"A549 cells": {"test_system": "A549 cells", "test": "cells", "conditions": "Homo sapiens, A549, 72 h, read-out: GI50 ± SD"}, "[1]": {"target": "T1, TOP1-DNA covalent cleavage complexes (TOP1cc) (Homo sapiens, UniProt P11387)", "T1 sequence (P11387 2-765 limits assumed)": "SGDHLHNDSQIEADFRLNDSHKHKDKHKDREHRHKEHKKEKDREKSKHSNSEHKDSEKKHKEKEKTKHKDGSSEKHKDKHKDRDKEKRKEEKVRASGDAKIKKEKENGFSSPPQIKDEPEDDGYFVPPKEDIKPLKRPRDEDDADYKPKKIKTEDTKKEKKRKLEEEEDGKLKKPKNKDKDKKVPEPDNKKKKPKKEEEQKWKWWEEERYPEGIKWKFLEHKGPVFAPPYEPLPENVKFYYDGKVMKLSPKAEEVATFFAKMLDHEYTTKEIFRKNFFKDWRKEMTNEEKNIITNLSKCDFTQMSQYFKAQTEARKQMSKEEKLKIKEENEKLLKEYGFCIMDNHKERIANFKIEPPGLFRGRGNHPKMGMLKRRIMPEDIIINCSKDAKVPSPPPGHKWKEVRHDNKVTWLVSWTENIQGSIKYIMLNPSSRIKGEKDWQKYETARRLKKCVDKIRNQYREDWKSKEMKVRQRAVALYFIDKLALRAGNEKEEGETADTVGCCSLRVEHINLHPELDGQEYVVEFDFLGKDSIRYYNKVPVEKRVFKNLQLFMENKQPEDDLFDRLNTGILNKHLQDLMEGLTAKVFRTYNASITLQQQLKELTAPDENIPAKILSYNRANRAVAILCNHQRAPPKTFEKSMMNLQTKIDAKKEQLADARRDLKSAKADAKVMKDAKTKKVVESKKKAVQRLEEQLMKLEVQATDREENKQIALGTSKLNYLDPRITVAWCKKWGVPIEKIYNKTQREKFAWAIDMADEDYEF", "test": "Immunocomplex of enzyme to DNA", "conditions": "HCT116 cells; for Induction of cellular TOP1cc: 1 h, CPT 25 and 50 μM, 12 at 25, 50 and 100 μM"}, "[2]": {"test_system": "human colon cancer HCT116 xenograft", "test": "In vivo antitumor efficiency, HCT116 xenograft", "conditions": "HCT116 xenograft nude mice; 5, 10, 20 mg/kg ip daily"}, "Kunming male mice": {"test_system": "Kunming male mice", "test": "Acute toxicity in vivo", "conditions": "n = 6"}, "[3]": {"test_system": "human breast cancer MCF-7 xenograft", "test": "In vivo antitumor efficiency, MCF-7 xenograft", "conditions": "MCF-7 xenograft nude mice; 5, 10, 20 mg/kg ip daily"}, "HCT116 cells": {"test_system": "HCT116 cells", "conditions": "0.5, 1 and 2 μM, 24 h"}, "γH2AX foci": {"test_system": "γH2AX foci", "test": "γH2AX foci immunofluorescence in HCT116 cells", "format": "cell-based, human", "conditions": "1 μM, 3 h"}},
  "data": [
    {"smiles": "CC[C@@]1(O)C(=O)OCc2c1cc1n(c2=O)Cc2cc3ccccc3nc2-1", "note": "[CPT, camptothecin, reference compound]", "values": [
      {"measurement": "GI50", "setting": "A549 cells", "value": "99 ± 17", "unit": "nM"},
      {"measurement": "Induction of cellular TOP1cc", "setting": "[1]", "value": "induce the formation of cellular TOP1cc in a dose-dependent manner"}
    ]},
    {"smiles": "CNCCn1c(=O)c2cc(OC)c(OC)cc2c2ccc3cc4c(cc3c21)OCO4", "note": "[Compound 12, 2,3-Dimethoxy-12-(2-(methylamino)ethyl)-[1,3]dioxolo[4’,5’:4,5]benzo[1,2-c]phenanthridin-13(12H)-one]", "values": [
      {"measurement": "tumor volume", "setting": "[2]", "value": "significantly reduced the tumor volume in a dose-dependent manner"},
      {"measurement": "Induction of cellular TOP1cc compared with CPT", "setting": "[1]; 25 μM", "value": "higher ability to induce cellular TOP1cc at 25 μM than CPT"},
      {"measurement": "Induction of cellular TOP1cc", "setting": "[1]", "value": "induce the formation of cellular TOP1cc in a dose-dependent manner"},
      {"measurement": "mice survival", "setting": "Kunming male mice; 122.9 mg/kg single ip dose, 7 days", "value": "all mice survived"},
      {"measurement": "mice survival", "setting": "Kunming male mice; 153.6 mg/kg single ip dose, 7 days", "value": "four mice survived"},
      {"measurement": "mice survival", "setting": "Kunming male mice; 192 mg/kg single ip dose, 7 days", "value": "three mice survived"},
      {"measurement": "mice survival", "setting": "Kunming male mice; 240 mg/kg single ip dose, 7 days", "value": "two mice survived"},
      {"measurement": "mice survival", "setting": "Kunming male mice; 300 mg/kg single ip dose", "value": "All mice died within 5 days"},
      {"measurement": "tumor volume", "setting": "[3]", "value": "significantly reduced the tumor volume in a dose-dependent manner"},
      {"measurement": "Induction of apoptosis", "setting": "HCT116 cells", "value": "induce HCT116 cells apoptosis in a dose-dependent manner"},
      {"measurement": "Induction of γH2AX foci (DNA damage)", "setting": "γH2AX foci", "value": "effectively induces γH2AX foci"}
    ]}
  ]
}
